Peptide text beside a SMILES is read from it.

By IC50 is commonly meant the concentration needed to halve the response being measured. A higher IC50 goes with weaker potency.

Test [1] relates to PMA-differentiated THP-1 cells. The class given is cell-based, human. The conditions noted are these: 3 h. Here is the method: The ability of [SRSRY] peptide to affect THP-1 cell migration was analyzed in Boyden chambers using 10 nM fMLF or 10 nM SRSRY as chemoattractants. […] Inhibitory effect of [SRSRY] is dose-dependent, it starts in the high fM range, it seems to level off in the μM range and reaches an overall 50% reduction at 10 pM (Fig 4B). […] The mechanisms by which monocytes move when subjected to a chemoattractant gradient, involve changes in cytoskeletal organization, which provide both protrusive and contractile forces necessary for cell migration. To gain some insights into the cellular effects exerted by peptide [SRSRY], PMA-differentiated THP-1 cells were grown adherent onto a glass slide, exposed to diluents (CTL), 10 nM fMLF gradient plus/minus 10 nM [SRSRY] or 10 nM [RSSYR] in a DUNN chamber for 6 hours as described, and then stained with rhodamine-phalloidin. A total of 100 cells/sample that translocated to the area corresponding to the ring separating the inner and outer chambers were counted and their cytoskeletal organization examined with a fluorescence-inverted microscope. […] Conversely, the addition of peptide [SRSRY] to the fMLF gradient reduced cell elongation and alignment with the appearance of F-actin linear distribution along the plasma membranes in the 60% of cell population (Fig 4C). In order to verify whether the inhibitory effect of [SRSRY] also occurs on primary monocytes and/or macrophages, human monocytes and macrophages were subjected to cell migration assays in Boyden and DUNN chambers, respectively. […] Unlike [RSSYR], 10 nM [SRSRY] reduced both fMLF- and SRSRY- directed monocyte migration by 50% and 49%, respectively. Next, primary macrophages were subjected to cell migration assay in DUNN chamber as above described. After 6 hours incubation, a total of 100 cells/sample that translocated to the area corresponding to the ring separating the inner and outer chambers were counted. Macrophage exposure to 10 nM fMLF elicited a considerable cell migration, reaching 230% of the basal cell migration (CTL), that was unchanged by 10 nM [[…]). […] These findings indicate that unlike linear SRSRY, the cyclic form of the chemotactic sequence of uPAR inhibits monocyte motility and prevents cytoskeletal re-organization occurring during migration of macrophages. {[…]] inhibits migration of monocytes and macrophages in a dose-dependent manner causing a marked inhibition of fMLF-dependent cytoskeletal re-organization. A. THP-1 cells (1x10^5 cells/well) were allowed to migrate for 90 minutes at 37°C, 5% CO2 in Boyden chambers toward 10 nM fMLF, or 10 nM SRSRY in the presence of diluents (None), 10 nM [RSSYR] or 10 nM [SRSRY]. […] Data are expressed as the means ± SD of three independent experiments, performed in duplicate. *Statistical significance against None with p<0.001. B. THP-1 and PMA-stimulated THP-1 cell migration toward 10 nM fMLF plus increasing concentrations of [SRSRY] in Boyden chambers. The extent of cell migration was expressed as a percentage of the net fMLF-dependent cell migration, considered as 100%. Data are expressed as the means ± SD of three independent experiments, performed in duplicate. C. Representative images of PMA-stimulated THP-1 cells allowed to migrate in a DUNN chamber toward diluents (CTL), or a fMLF chemotactic gradient, in the absence (None) or presence of 10 nM [SRSRY] or [RSSYR] peptides and stained with rhodamine-phalloidin. Scale bar: 10 μm. Original magnifications: 630x. D-E. Primary monocytes (1x10^5 cells/well) were allowed to migrate for 90 minutes at 37°C, 5% CO2 in Boyden chambers toward 10 nM fMLF (D), or 10 nM […]) in the presence of diluents (None), 10 nM [RSSYR] or 10 nM [SRSRY]. […] Data are expressed as the means ± SD of three independent experiments, performed in duplicate. *Statistical significance against None with p<0.001; **Statistical significance against None with p<0.0001. […]

The next test addresses T1, FPR1 (Homo sapiens, UniProt P21462).
T1 sequence (P21462 1-350): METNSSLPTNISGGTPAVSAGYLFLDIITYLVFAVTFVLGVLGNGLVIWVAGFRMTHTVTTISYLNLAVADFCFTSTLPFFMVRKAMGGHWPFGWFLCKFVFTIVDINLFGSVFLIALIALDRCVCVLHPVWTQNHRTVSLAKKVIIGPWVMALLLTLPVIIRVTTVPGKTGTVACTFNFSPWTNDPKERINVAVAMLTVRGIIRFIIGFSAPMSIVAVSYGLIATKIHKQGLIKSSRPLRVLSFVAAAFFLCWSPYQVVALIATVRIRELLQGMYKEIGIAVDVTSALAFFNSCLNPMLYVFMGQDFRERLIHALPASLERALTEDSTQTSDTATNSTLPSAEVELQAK
As to the kind of experiment: Agonist-induced FPR1 internalization at 37°C, fluorescence microscopy, THP-1 cells. Set-up: host or cells: THP-1 human monocytic leukemia cells. Type of test: cell-based. The conditions noted are these: excess (100 nM) unlabelled peptide 30 min at 37°C, then 10 nM FITC-fMLF 30 min at 37°C. Here is the method: Once documented that both SRSRY and [SRSRY] peptides compete with fMLF for binding to FPR1, we investigated the effect of [SRSRY] on the motility of monocytes. Preliminarily, we assessed whether [SRSRY] is a ligand of FPR1 on monocyte cell surface. […] (Fig 3A). When binding experiments were performed at 37°C, FPR1 appeared mainly localized within the cytoplasm, adjacent but outside the nucleus of THP-1 cells.
Fig 3 The peptide [SRSRY] binds to FPR1 on THP-1 cell surface. A. THP-1 cells (1.5 x10^6 cells/sample) were pre-incubated with diluents (None), 100 nM fMLF, 100 nM SRSRY or 100 nM [SRSRY] peptides for 60 minutes at 4°C, then exposed to 10 nM N-formyl-Nle-Leu-Phe-Nle-Tyr-Lys-fluorescein (FITC-fMLF) for additional 60 minutes at 4°C. Fluorimetric measurement of cell-associated fluorescence was assed using 485 nm excitation and 535 nm emission filters. Data are expressed as a percentage of the fluorescence associated to THP-1 cells exposed to FITC-fMLF alone (None = 100%) and represent a mean ± SD from triplicates. *Statistical significance (t-test) against None with p<0.001. B. THP-1 cells incubated with diluents (None), 100 nM fMLF, 100 nM SRSRY or 100 nM [SRSRY] peptides for 30 minutes at 37°C and exposed to 10 nM FITC-fMLF for additional 30 minutes at 37°C. Scale bar: 5 μm. Original magnifications: 630x. […]

`N=C(N)NCCC[C@@H]1NC(=O)[C@H](CO)NC(=O)[C@H](Cc2ccc(O)cc2)NC(=O)[C@H](CCCNC(=N)N)NC(=O)[C@H](CO)NC1=O` [[SRSRY], [Ser-Arg-Ser-Arg-Tyr]] (cyclo(RSRYS)) yielded an IC50 in test [1] of 0.01 nM. Also, the “internalization of fluorescent agonist in THP-1 cells” value at FPR1 is given as “dramatically reduced”.

(Values after article PMC4418665, “Cyclization of the Urokinase Receptor-Derived Ser-Arg-Ser-Arg-Tyr Peptide Generates a Potent Inhibitor of Trans-Endothelial Migration of Monocytes” (PLoS ONE, 2015).)
